Assay results reported in patent publication US20260241049A1, “Radiopharmaceutical Compositions Targeting Glypican-3 and Uses Thereof” (RayzeBio, Inc., priority 2023, published 2026).
Starred links: 1 amine or outer side, 2 acyl side, 3 side chain; linkers in the order of their positions; H or OH if unused. Positions of bridges follow the written chain, without caps; N, C: chain ends. Non-standard residues stand in square brackets, D forms with d. Residues, ends and D or L forms follow the SMILES beside them. Primed or numbered codes have the meaning given here. MeHseMe″ = (2S)-4-methoxy-2-(methylamino)butanoic acid (N-methyl-O-methyl-L-homoserine), COCC[C@@H](C(=O)[*:2])N(C)[*:1]; NMeAla(isoquinolin-7-yl) = CN[C@@H](Cc1ccc2ccncc2c1)C(=O)O; 3Pal(6-Ph) = N[C@@H](Cc1ccc(-c2ccccc2)nc1)C(=O)O; Phe(4-COOH) = N[C@@H](Cc1ccc(C(=O)O)cc1)C(=O)O; NMeQ = CN[C@@H](CCC(N)=O)C(=O)O; NMehSer = CN[C@@H](CCO)C(=O)O; NMeK = CN[C@@H](CCCCN)C(=O)O; NMeC = CN[C@@H](CS)C(=O)O

Columns and labels:
HCC patient = settings: cited from earlier work
[1] = system: late-stage liver cancer patients; settings: phase II clinical trial, 185 late-stage liver cancer patients; cited from earlier work
[2] = system: Huh-7 (glypican 3 expressed on the cell surface); experiment: Flow cytometry, biotinylated peptides followed by SAPE, Huh-7; assay type: cell-based, human; settings: biotinylated peptide at 100 nM followed by SAPE (1:250), on ice; versus SK-Hep1 negative control; FIG. 2
Description: (§1) HepG2 (human hepatocellular carcinoma) and SK-HEP-1 (human hepatic adenocarcinoma) cell lines were purchased from the American Type Culture Collection (ATCC; Manassas, VA). Huh-7 (human hepatoblastoma) cell line was purchased from the Japanese Collection of Research Bioresources Cell Bank (JCRB Cell Bank, Osaka, Japan). HepG2 and SK-HEP-1 were grown in EMEM (FUJIFILM Wako Pure Chemical Corporation, 055-08975) with 10% fetal bovine serum (FBS; Thermo Fisher Scientific, 10270106) and 0.1% gentamicin (NACALAI TESQUE, 11980-14). Huh-7 was grown in DMEM (Thermo Fisher Scientific, 10567014) with 10% FBS and 0.1% gentamicin.
(§2) HepG2, SK-HEP-1 and Huh-7 cells were collected from the culture dish and stained with biotinylated peptides at 100 nM followed by Streptavidin, R-Phycoerythrin Conjugate (SAPE: Thermo Fisher Scientific, S866) (1:250). Cells were washed with phosphate-buffered saline (PBS; FUJIFILM Wako Pure Chemical Corporation, 043-29791) containing 0.5% FBS after addition of peptides or SAPE. All staining procedures were performed on ice. Samples were measured using CytoFLEX S (Beckman Coulter) and CytExpert ver2.4 software. All data were analyzed using FlowJo™ (BD Bioscience). For discrimination of live cells from dead cells, SYTOX™ Blue Dead Cell Stain (Thermo Fisher Scientific, S34857) (1:5000) was added prior to measurement.

[3] = system: HepG2 (glypican 3 expressed on the cell surface); experiment: Flow cytometry, biotinylated peptides followed by SAPE, HepG2; assay type: cell-based, human; settings: biotinylated peptide at 100 nM followed by SAPE (1:250), on ice; versus SK-Hep1 negative control; FIG. 1
Description: as §1, §2

Human Glypican3-Fc = Human Glypican3-Fc (Homo sapiens, UniProt P51654); experiment: SPR binding to Glypican-3, Method B-4 (Glypican3-Fc on Protein A chip, peptide 40 nM); settings: SPR method B-4, peptide 40 nM
Description: A Protein A sensor chip (Cytiva) was inserted into a Biacore T200 (Cytiva), priming was performed three times with a running buffer: HBS-P+, pH 7.4 (Cytiva), and equilibration was carried out at a flow rate of […]. Gly pican3-Fc was allowed to react for 60 seconds at a flow rate of 10 μL/min. After capturing human Glypican3-Fc, a peptide solution prepared to 1 mM in DMSO solution was diluted with a running buffer to a final concentration of 1 μM. After that, the peptide solution was diluted to 40 nM in a similar manner. Using the above samples, peptide kinetics for Glypican3 was obtained by SPR measurement. Kinetics evaluation of Glypican3 was performed by SPR measurements at a flow rate of 30 μL/min. setting the association time to 120 seconds and the disassociation time to 600 seconds.
The obtained data by Method B-1, Method B-2, Method B-3 and Method B-4 were analyzed by follow. Single Cycle Kinetics was used as the kinetics evaluation model, and curve fitting was performed using Biacore T200 Evaluation Software Version 3.0 (Cytiva). The obtained sensorgram was subjected to curve fitting by the method of least squares and obtained KD values of the macrocyclic peptides in this disclosure for Glypican 3 protein are shown in Table 18.

[4] = target: T1, Human Glypican3-Fc (ACRO Biosystems, GP3-H5258) (human, UniProt P51654 25-559); experiment: SPR (Biacore T200), Method B-4: Glypican3-Fc captured on Protein A chip, peptide at 40 nM
T1 construct: Bought fusion protein, captured in Methods B-2, B-3 and B-4; Catalogue number is printed only in Method B-2; not shown: Fc part of the bought fusion
Description: Using the above samples, peptide kinetics for Glypican3 was obtained by SPR measurement.
The obtained data by Method B-1, Method B-2, Method B-3 and Method B-4 were analyzed by follow. Single Cycle Kinetics was used as the kinetics evaluation model, and curve fitting was performed using Biacore T200 Evaluation Software Version 3.0 (Cytiva).

Codrituzumab
tolerance in phase I clinical trials (HCC patient; phase I clinical trials): good immune tolerance | anti-tumour effect in HCC patient (HCC patient; phase I, advanced hepatocellular carcinoma): anti-tumour effect | therapeutic efficacy compared with the control group [1]: not impressive

CC[C@H](C)[C@@H]1NC[C@H](Cc2ccc(C(=O)O)cc2)NC(=O)[C@H](CCC(N)=O)N(C)C(=O)[C@H](CC(=O)O)NC(=O)[C@H]([C@@H](C)CC)N(C)C(=O)[C@H](CCCCNC(C)=O)N(C)C(=O)CSC[C@@H](C(=O)NCC(=O)NCCOCCOCCOCCOCCOCCOCCOCCOCCOCCOCCC(=O)N[C@@H](CCCCNC(=O)CCCC[C@@H]2SC[C@@H]3NC(=O)N[C@@H]32)C(N)=O)N(C)C(=O)[C@H](Cc2ccc(-c3ccccc3)nc2)NC(=O)CNC(=O)[C@H](Cc2ccc3ccncc3c2)N(C)C(=O)[C@H](Cc2ccc(O)cc2)NC(=O)[C@H]([C@@H](C)CC)NC1=O [PLB-60]
comparative staining of Huh-7 cells (flow cytometry) [2]: specific binding | comparative staining of HepG2 cells (flow cytometry) [3]: specific binding

CC[C@H](C)[C@@H]1NC(=O)[C@H](Cc2ccc(C(=O)O)cc2)NC(=O)[C@H](CCC(N)=O)N(C)C(=O)[C@H](CC(=O)O)NC(=O)[C@H](CCOC)N(C)C(=O)[C@H](CCCCN)N(C)C(=O)CSC[C@@H](C(N)=O)N(C)C(=O)[C@H](Cc2ccc(-c3ccccc3)nc2)NC(=O)CNC(=O)[C@H](Cc2ccc3ccncc3c2)N(C)C(=O)[C@H](Cc2ccc(O)cc2)NC(=O)[C@H]([C@@H](C)CC)NC1=O [Conjugate 2-61] ({CH2CO}-[NMeK][NMehSer](Me)D[NMeQ][Phe(4-COOH)]IIY[NMeAla(isoquinolin-7-yl)]G[3Pal(6-Ph)][NMeC]-NH2; thioether N-12)
Kd (Human Glypican3-Fc): 0.23 nM

B1: Macrocyclic peptide of Example 2-61 (SEQ ID No. 72) (peptide)
peptide: {CH2CO}-[NMeK][MeHseMe″]D[NMeQ][Phe(4-COOH)]IIY[NMeAla(isoquinolin-7-yl)]G[3Pal(6-Ph)][NMeC]-NH2
modifications: thioether N-12
SMILES: CC[C@H](C)[C@@H]1NC(=O)[C@H](Cc2ccc(C(=O)O)cc2)NC(=O)[C@H](CCC(N)=O)N(C)C(=O)[C@H](CC(=O)O)NC(=O)[C@H](CCOC)N(C)C(=O)[C@H](CCCCN)N(C)C(=O)CSC[C@@H](C(N)=O)N(C)C(=O)[C@H](Cc2ccc(-c3ccccc3)nc2)NC(=O)CNC(=O)[C@H](Cc2ccc3ccncc3c2)N(C)C(=O)[C@H](Cc2ccc(O)cc2)NC(=O)[C@H]([C@@H](C)CC)NC1=O
Kd [4]: 0.23 nM
